Reference: patent publication EP4745135A1 (Gluetacs Therapeutics (Shanghai) Co., Ltd., priority 2023, dated 2025)

Experiments:
CK1α = molecular target: T1, CK1α (Homo sapiens, UniProt P48729+Q96SW2); test: Western blot, degradation of substrate protein in hPBMCs; type: cell-based
T1 construct: effects of the compounds of the present disclosure on the expression of target proteins in cells; endogenous in cells; host or cells: human PBMCs (Milecell Biotechnologies)

IKZF1 = molecular target: T2, IKZF1 (Homo sapiens, UniProt Q13422+Q96SW2); test: as above; type: cell-based
T2 construct: effects of the compounds of the present disclosure on the expression of target proteins in cells; endogenous in cells; host or cells: human PBMCs (Milecell Biotechnologies)

IKZF2 = molecular target: T3, IKZF2 (Homo sapiens, UniProt Q96SW2+Q9UKS7); test: as above; type: cell-based
T3 construct: effects of the compounds of the present disclosure on the expression of target proteins in cells; endogenous in cells; host or cells: human PBMCs (Milecell Biotechnologies)

IKZF3 = molecular target: T4, IKZF3 (Homo sapiens, UniProt Q96SW2+Q9UKT9); test: as above; type: cell-based
T4 construct: effects of the compounds of the present disclosure on the expression of target proteins in cells; endogenous in cells; host or cells: human PBMCs (Milecell Biotechnologies)

WEE1 = molecular target: T5, WEE1 (Homo sapiens, UniProt P30291+Q96SW2); test: as above; type: cell-based
T5 construct: effects of the compounds of the present disclosure on the expression of target proteins in cells; endogenous in cells; host or cells: human PBMCs (Milecell Biotechnologies)

GSPT1 = test: as above; type: cell-based, Human
[1] = molecular target: T6, human Cereblon WT GST-tagged protein (Homo sapiens, UniProt Q96SW2); test: CRBN-binding affinity, HTRF (CEREBLON BINDING kit); settings: for inhibition at 0.5 µM: read-out: Inhibition Rate at 0.5 µM (%); for inhibition at 2 µM: read-out: Inhibition Rate at 2 µM (%)
T6 construct: purchased CISBIO 64BDCRBNPEH

[2] = Western blot, 24 hours of compound treatment, compounds tested at 50 nM and 500 nM (concentration for the table not stated)
[3] = 24 hours treatment, compounds at 50 nM and 500 nM (concentration behind the class not stated)

T4 sequence (Q9UKT9 whole entry): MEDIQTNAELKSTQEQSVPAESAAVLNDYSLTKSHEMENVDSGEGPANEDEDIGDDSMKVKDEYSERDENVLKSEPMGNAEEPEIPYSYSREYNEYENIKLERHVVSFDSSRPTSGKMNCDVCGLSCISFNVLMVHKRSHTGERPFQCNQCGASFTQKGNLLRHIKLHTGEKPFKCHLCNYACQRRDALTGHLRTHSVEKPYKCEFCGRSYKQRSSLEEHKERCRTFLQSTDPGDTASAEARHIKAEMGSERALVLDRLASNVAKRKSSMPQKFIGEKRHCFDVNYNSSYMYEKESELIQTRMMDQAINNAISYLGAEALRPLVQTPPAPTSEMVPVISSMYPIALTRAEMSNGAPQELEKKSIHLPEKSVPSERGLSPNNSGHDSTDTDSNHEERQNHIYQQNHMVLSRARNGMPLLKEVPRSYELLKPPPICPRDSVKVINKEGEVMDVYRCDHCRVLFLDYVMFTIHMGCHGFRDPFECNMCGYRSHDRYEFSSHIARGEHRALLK
T4 sequence (Q96SW2 whole entry): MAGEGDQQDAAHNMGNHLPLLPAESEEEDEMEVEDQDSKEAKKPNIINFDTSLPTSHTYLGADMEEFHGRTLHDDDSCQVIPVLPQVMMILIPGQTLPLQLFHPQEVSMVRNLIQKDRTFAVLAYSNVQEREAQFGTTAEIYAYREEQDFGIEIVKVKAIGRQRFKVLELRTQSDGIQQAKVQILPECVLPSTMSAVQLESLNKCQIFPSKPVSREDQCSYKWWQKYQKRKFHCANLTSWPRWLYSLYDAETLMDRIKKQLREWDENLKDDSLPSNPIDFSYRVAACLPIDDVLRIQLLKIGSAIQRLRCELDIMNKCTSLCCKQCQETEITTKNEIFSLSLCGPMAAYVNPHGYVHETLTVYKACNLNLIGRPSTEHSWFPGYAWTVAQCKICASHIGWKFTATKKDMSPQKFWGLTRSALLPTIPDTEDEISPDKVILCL
T4 sequence (Q16531 whole entry partner): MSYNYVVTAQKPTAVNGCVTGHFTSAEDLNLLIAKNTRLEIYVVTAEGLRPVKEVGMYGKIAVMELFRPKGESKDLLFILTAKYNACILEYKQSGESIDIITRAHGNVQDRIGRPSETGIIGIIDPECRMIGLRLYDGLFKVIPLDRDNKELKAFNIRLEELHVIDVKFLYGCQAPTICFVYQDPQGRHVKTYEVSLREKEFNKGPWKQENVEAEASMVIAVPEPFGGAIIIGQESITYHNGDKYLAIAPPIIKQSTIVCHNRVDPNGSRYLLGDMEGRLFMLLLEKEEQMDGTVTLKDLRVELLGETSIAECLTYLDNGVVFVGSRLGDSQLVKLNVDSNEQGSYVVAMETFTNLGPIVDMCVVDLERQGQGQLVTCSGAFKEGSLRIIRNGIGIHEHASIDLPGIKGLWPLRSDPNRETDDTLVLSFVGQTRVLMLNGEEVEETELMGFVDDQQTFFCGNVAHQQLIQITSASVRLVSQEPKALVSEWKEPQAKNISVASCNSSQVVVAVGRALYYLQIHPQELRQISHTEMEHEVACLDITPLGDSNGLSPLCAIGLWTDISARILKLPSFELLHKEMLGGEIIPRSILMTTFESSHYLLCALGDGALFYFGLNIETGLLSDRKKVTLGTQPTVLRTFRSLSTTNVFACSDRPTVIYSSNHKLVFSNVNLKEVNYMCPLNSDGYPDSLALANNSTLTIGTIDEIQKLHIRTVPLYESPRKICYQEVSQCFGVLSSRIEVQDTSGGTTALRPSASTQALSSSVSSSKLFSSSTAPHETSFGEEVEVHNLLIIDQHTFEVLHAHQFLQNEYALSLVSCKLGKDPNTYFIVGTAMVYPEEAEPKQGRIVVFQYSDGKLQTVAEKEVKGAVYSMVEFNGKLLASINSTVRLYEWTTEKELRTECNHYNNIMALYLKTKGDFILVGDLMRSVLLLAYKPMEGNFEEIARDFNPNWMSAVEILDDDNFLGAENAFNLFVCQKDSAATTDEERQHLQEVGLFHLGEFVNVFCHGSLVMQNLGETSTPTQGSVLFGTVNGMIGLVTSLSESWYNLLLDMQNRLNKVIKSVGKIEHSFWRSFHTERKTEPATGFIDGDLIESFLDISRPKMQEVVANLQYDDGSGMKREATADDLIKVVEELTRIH
T2 sequence (Q13422 whole entry): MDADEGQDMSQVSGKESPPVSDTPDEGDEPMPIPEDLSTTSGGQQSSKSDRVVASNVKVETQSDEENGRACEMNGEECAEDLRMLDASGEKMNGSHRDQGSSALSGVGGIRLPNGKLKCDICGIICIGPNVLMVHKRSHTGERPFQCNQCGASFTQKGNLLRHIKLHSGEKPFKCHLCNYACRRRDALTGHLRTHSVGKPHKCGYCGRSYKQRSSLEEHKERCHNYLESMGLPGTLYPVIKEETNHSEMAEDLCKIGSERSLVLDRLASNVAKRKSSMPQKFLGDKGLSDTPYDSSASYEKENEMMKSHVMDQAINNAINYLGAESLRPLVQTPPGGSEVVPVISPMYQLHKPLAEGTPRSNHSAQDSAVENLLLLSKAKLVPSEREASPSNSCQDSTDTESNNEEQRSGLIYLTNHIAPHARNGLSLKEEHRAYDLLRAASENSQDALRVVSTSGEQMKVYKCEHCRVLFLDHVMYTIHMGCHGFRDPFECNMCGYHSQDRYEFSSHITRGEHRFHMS
T2 sequence (Q96SW2 whole entry): as the sequence (Q96SW2 whole entry) above
T2 sequence (Q16531 whole entry partner): as the sequence (Q16531 whole entry partner) above
T5 sequence (P30291 whole entry): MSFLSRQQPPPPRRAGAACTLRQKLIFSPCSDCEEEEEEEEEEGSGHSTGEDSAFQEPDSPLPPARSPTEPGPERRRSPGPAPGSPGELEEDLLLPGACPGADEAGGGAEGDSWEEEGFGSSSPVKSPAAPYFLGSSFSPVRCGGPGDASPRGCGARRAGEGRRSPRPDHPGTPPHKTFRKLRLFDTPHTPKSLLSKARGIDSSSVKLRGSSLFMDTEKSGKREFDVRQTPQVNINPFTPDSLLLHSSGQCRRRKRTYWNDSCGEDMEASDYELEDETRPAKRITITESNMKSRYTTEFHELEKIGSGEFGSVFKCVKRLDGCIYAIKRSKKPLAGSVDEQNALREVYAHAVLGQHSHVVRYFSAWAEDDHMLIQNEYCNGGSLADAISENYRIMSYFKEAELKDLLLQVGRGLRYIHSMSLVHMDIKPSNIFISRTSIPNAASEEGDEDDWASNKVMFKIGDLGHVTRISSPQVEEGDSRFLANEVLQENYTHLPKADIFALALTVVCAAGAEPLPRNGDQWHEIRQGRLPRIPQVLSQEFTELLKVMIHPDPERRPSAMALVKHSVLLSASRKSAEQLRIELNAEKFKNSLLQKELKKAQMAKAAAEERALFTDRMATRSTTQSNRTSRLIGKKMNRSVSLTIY
T5 sequence (Q96SW2 whole entry): as the sequence (Q96SW2 whole entry) above
T5 sequence (Q16531 whole entry partner): as the sequence (Q16531 whole entry partner) above
T6 sequence (Q96SW2 whole entry): as the sequence (Q96SW2 whole entry) above
T3 sequence (Q9UKS7 whole entry): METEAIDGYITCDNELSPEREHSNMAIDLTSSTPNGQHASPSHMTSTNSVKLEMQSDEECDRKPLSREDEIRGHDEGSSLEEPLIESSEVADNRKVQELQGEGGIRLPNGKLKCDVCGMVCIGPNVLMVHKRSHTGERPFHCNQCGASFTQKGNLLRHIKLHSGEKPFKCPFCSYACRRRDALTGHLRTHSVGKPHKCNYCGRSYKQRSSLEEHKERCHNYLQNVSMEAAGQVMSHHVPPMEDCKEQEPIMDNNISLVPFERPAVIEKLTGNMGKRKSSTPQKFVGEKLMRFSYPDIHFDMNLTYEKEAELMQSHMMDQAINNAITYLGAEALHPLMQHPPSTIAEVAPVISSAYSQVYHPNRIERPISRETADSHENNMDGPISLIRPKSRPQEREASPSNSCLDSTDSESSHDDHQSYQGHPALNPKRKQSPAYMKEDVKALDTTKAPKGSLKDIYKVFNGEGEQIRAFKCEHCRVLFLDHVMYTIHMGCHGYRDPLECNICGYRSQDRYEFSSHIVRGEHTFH
T3 sequence (Q96SW2 whole entry): as the sequence (Q96SW2 whole entry) above
T3 sequence (Q16531 whole entry partner): as the sequence (Q16531 whole entry partner) above
T1 sequence (P48729 whole entry): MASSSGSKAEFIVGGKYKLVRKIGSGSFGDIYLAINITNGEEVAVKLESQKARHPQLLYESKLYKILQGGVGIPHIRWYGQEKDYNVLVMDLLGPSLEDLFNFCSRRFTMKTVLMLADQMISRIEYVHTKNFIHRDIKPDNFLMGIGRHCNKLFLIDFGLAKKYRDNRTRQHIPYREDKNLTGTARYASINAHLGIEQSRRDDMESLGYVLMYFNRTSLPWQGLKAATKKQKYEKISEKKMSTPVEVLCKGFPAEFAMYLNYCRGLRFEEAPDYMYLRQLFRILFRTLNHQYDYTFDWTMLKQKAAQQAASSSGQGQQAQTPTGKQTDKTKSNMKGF
T1 sequence (Q96SW2 whole entry): as the sequence (Q96SW2 whole entry) above
T1 sequence (Q16531 whole entry partner): as the sequence (Q16531 whole entry partner) above

Row | SMILES | CK1α substrate protein remaining % (CK1α; [2]) | IKZF 1 substrate protein remaining % (IKZF1; [2]) | IKZF2 substrate protein remaining % (IKZF2; [2]) | IKZF3 substrate protein remaining % (IKZF3; [2]) | Wee1 substrate protein remaining % (WEE1; [2]) | GSPT1 substrate protein remaining % (GSPT1; [2]) | inhibition at 0.5 µM [1] | inhibition at 2 µM [1] | CK1α substrate protein remaining % (CK1α; [3]) | IKZF 1 substrate protein remaining % (IKZF1; [3]) | IKZF2 substrate protein remaining % (IKZF2; [3]) | IKZF3 substrate protein remaining % (IKZF3; [3]) | Wee1 substrate protein remaining % (WEE1; [3]) | GSPT1 substrate protein remaining % (GSPT1; [3]) | IC50 ([1]; CRBN binding, HTRF, 3 hours at room temperature, read-out: HTRF IC50)
1 | O=C1CCC(N2Cc3c(CN4CCN(c5ccc(Cl)cn5)CC4)cccc3C2=S)C(=O)N1 (centres unmarked) [GT-08694, 3-(4-((4-(5-chloropyridin-2-yl)piperazin-1-yl)methyl)-1-thioxoisoindolin-2-yl)piperidine-2,6-dione] | B (80%< substrate protein remaining %≤ 100%) | B (80%< substrate protein remaining %≤ 100%) | B (80%< substrate protein remaining %≤ 100%) | B (80%< substrate protein remaining %≤ 100%) | A (0% ≤ substrate protein remaining % ≤ 80%) | A (0% ≤ substrate protein remaining % ≤ 80%) | 40 to 53% | 60 to 80% |  |  |  |  |  |  | 
2 | O=C1CCC(N2Cc3cc(CN4CCN(c5nccc(I)c5F)CC4)ccc3C2=S)C(=O)N1 (centres unmarked) [GT-09227, 3-(5-((4-(3-fluoro-4-iodopyridin-2-yl)piperazin-1-yl)methyl)-1-thioxoisoindolin-2-yl)piperidine-2,6-dione] | A (0% ≤ substrate protein remaining % ≤ 80%) | B (80%< substrate protein remaining %≤ 100%) | B (80%< substrate protein remaining %≤ 100%) | B (80%< substrate protein remaining %≤ 100%) | B (80%< substrate protein remaining %≤ 100%) | A (0% ≤ substrate protein remaining % ≤ 80%) | 60 to 80% | 80 to 100% |  |  |  |  |  |  | 
3 | CC1(C)CN(Cc2ccc3c(c2)CN(C2CCC(=O)NC2=O)C3=S)CCN1C(c1ccccc1)c1ccccc1 (centres unmarked) [GT-07845, 3-(5-((4-benzhydryl-3,3-dimethylpiperazin-1-yl)methyl)-1-thioxoisoindolin-2-yl)piperidine-2,6-dione] | B (80%< substrate protein remaining %≤ 100%) | A (0% ≤ substrate protein remaining % ≤ 80%) | A (0% ≤ substrate protein remaining % ≤ 80%) | B (80%< substrate protein remaining %≤ 100%) | A (0% ≤ substrate protein remaining % ≤ 80%) | B (80%< substrate protein remaining %≤ 100%) | 40 to 53% | 60 to 80% |  |  |  |  |  |  | 
4 | O=C1CCC(N2Cc3c(CN4CCN(c5cnnc(Cl)c5Cl)CC4)cccc3C2=S)C(=O)N1 (centres unmarked) [GT-08815, 3-(4-((4-(5,6-dichloropyridazin-4-yl)piperazin-1-yl)methyl)-1-thioxoisoindolin-2-yl)piperidine-2,6-dione] | B (80%< substrate protein remaining %≤ 100%) | B (80%< substrate protein remaining %≤ 100%) | B (80%< substrate protein remaining %≤ 100%) | B (80%< substrate protein remaining %≤ 100%) | A (0% ≤ substrate protein remaining % ≤ 80%) | B (80%< substrate protein remaining %≤ 100%) | 60 to 80% | 80 to 100% |  |  |  |  |  |  | 
5 | Cc1nc(C2=CCN(Cc3ccc4c(c3)CN(C3CCC(=O)NC3=O)C4=S)CC2)c2c3c(sc2n1)CCC3 (centres unmarked) [GT-09326, 3-(5-((4-(2-methyl-6,7-dihydro-5H-cyclopenta[4,5]thieno[2,3-d]pyrimidin-4-yl)-3,6-dihydropyridin-1(2H)-yl)methyl)-1-thioxoisoindolin-2-yl)piperidine-2,6-dione] |  |  |  |  |  |  | 53 to 60% | 80 to 100% | B (80%< substrate protein remaining %≤ 100%) | B (80%< substrate protein remaining %≤ 100%) | B (80%< substrate protein remaining %≤ 100%) | B (80%< substrate protein remaining %≤ 100%) | A (0% ≤ substrate protein remaining % ≤ 80%) | A (0% ≤ substrate protein remaining % ≤ 80%) | 
6 | O=C1CCC(N2Cc3c(CN4CCN(c5ccncc5Br)CC4)cccc3C2=S)C(=O)N1 (centres unmarked) [GT-08729, 3-(4-((4-(3-bromopyridin-4-yl)piperazin-1-yl)methyl)-1-thioxoisoindolin-2-yl)piperidine-2,6-dione] | B (80%< substrate protein remaining %≤ 100%) | B (80%< substrate protein remaining %≤ 100%) | B (80%< substrate protein remaining %≤ 100%) | B (80%< substrate protein remaining %≤ 100%) | A (0% ≤ substrate protein remaining % ≤ 80%) | B (80%< substrate protein remaining %≤ 100%) | 60 to 80% | 80 to 100% |  |  |  |  |  |  | 
7 | O=C1CCC(N2Cc3cc(CN4CCC(c5ncnc6sc7c(c56)CCC7)CC4)ccc3C2=S)C(=O)N1 (centres unmarked) [GT-09311, 3-(5-((4-(6,7-dihydro-5H-cyclopenta[4,5]thieno[2,3-d]pyrimidin-4-yl)piperidin-1-yl)methyl)-1-thioxoisoindolin-2-yl)piperidine-2,6-dione] |  |  |  |  |  |  | 60 to 80% | 80 to 100% | B (80%< substrate protein remaining %≤ 100%) | A (0% ≤ substrate protein remaining % ≤ 80%) | B (80%< substrate protein remaining %≤ 100%) | A (0% ≤ substrate protein remaining % ≤ 80%) | A (0% ≤ substrate protein remaining % ≤ 80%) | A (0% ≤ substrate protein remaining % ≤ 80%) | 
8 | O=C1CCC(N2Cc3cc(CN4CCC(c5ccco5)CC4)ccc3C2=S)C(=O)N1 (centres unmarked) [GT-05148, 3-(5-((4-(furan-2-yl)piperidin-1-yl)methyl)-1-thioxoisoindolin-2-yl)piperidine-2,6-dione] | B (80%< substrate protein remaining %≤ 100%) | B (80%< substrate protein remaining %≤ 100%) | B (80%< substrate protein remaining %≤ 100%) | B (80%< substrate protein remaining %≤ 100%) | B (80%< substrate protein remaining %≤ 100%) | A (0% ≤ substrate protein remaining % ≤ 80%) |  |  |  |  |  |  |  |  | 100 to 500 nM
9 | Cc1cccc(N2CCN(Cc3cccc4c3CN(C3CCC(=O)NC3=O)C4=S)CC2)n1 (centres unmarked) [GT-08692, 3-(4-((4-(6-methylpyridin-2-yl)piperazin-1-yl)methyl)-1-thioxoisoindolin-2-yl)piperidine-2,6-dione] | B (80%< substrate protein remaining %≤ 100%) | B (80%< substrate protein remaining %≤ 100%) | B (80%< substrate protein remaining %≤ 100%) | B (80%< substrate protein remaining %≤ 100%) | A (0% ≤ substrate protein remaining % ≤ 80%) | B (80%< substrate protein remaining %≤ 100%) | 53 to 60% | 80 to 100% |  |  |  |  |  |  | 
10 | Cc1cscc1N1CCN(Cc2cccc3c2CN(C2CCC(=O)NC2=O)C3=S)CC1 (centres unmarked) [GT-08306, 3-(4-((4-(4-methylthiophen-3-yl)piperazin-1-yl)methyl)-1-thioxoisoindolin-2-yl)piperidine-2,6-dione] |  |  |  |  |  |  | 53 to 60% | 80 to 100% | B (80%< substrate protein remaining %≤ 100%) | B (80%< substrate protein remaining %≤ 100%) | B (80%< substrate protein remaining %≤ 100%) | B (80%< substrate protein remaining %≤ 100%) | A (0% ≤ substrate protein remaining % ≤ 80%) | B (80%< substrate protein remaining %≤ 100%) | 
11 | O=C1CCC(N2Cc3cc(CN4CCN(CC5=C(c6ccc(F)cc6)CCCC5)CC4)ccc3C2=S)C(=O)N1 (centres unmarked) [GT-08164, 3-(5-((4-((4'-fluoro-3,4,5,6-tetrahydro-[1,1'-biphenyl]-2-yl)methyl)piperazin-1-yl)methyl)-1-thioxoisoindolin-2-yl)piperidine-2,6-dione] |  |  |  |  |  |  | 40 to 53% | 80 to 100% | B (80%< substrate protein remaining %≤ 100%) | A (0% ≤ substrate protein remaining % ≤ 80%) | A (0% ≤ substrate protein remaining % ≤ 80%) | A (0% ≤ substrate protein remaining % ≤ 80%) | A (0% ≤ substrate protein remaining % ≤ 80%) | A (0% ≤ substrate protein remaining % ≤ 80%) | 
12 | Cc1nc(N2CCN(Cc3cccc4c3CN(C3CCC(=O)NC3=O)C4=S)CC2)c2ccsc2n1 (centres unmarked) [GT-08922, 3-(4-((4-(2-methylthieno[2,3-d]pyrimidin-4-yl)piperazin-1-yl)methyl)-1-thioxoisoindolin-2-yl)piperidine-2,6-dione] |  |  |  |  |  |  | 60 to 80% | 80 to 100% | B (80%< substrate protein remaining %≤ 100%) | B (80%< substrate protein remaining %≤ 100%) | B (80%< substrate protein remaining %≤ 100%) | B (80%< substrate protein remaining %≤ 100%) | A (0% ≤ substrate protein remaining % ≤ 80%) | B (80%< substrate protein remaining %≤ 100%) | 
